# Results from US12643867B2, “Compositions and uses thereof” (University of Virginia Patent Foundation, priority 2017, dated 2026).
# Molecular target: T1, MP2K3 (Dual specificity mitogen-activated protein kinase kinase 3) (Homo sapiens, UniProt P46734)
# T1 construct: Native kinases; endogenous in cells; host or cells: HEK293T soluble proteome
# T1 sequence (P46734 1-347): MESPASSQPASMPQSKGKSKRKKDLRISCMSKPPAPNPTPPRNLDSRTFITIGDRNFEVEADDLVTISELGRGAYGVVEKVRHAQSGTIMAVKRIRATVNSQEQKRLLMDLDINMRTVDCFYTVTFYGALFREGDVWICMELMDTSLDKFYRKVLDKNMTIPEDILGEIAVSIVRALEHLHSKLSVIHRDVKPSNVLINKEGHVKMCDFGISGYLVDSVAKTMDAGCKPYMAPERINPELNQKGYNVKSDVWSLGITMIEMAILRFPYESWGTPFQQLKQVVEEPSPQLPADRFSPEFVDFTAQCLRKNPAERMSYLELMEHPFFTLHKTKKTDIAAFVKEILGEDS
# Test: SILAC LC-MS ATP acyl phosphate probe competition, native kinases in HEK293T
# Assay type: binding
# Details: site Lys2; ATP 1 mM; Ketanserin, Ritanserin 100 μM; RF001 1 mM
# In short: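 Light and heavy SILAC HEK293T proteomes (2 mg/ml in kinase buffer) were pre-treated with DMSO or compound (50× stock in DMSO) for 30 min at 25° C, then mixed 1:1, reduced, alkylated and digested with trypsin/Lys-C. Desthiobiotin-labelled peptides were avidin-enriched and analysed by LC-MS/MS on an Orbitrap, top-10 data-dependent acquisition.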
row,Compound,"SILAC ratio, MP2K3 probe-modified peptide"
1,O=C(c1ccc(F)cc1)C1CCN(CCn2c(=O)[nH]c3ccccc3c2=O)CC1 [Ketanserin],1.4
2,"Fc1ccc(C(=C2CCNCC2)c2ccc(F)cc2)cc1 [RF001, 4-(Bis(4-fluorophenyl)methylene) piperidine]",1.2
3,Cc1nc2sccn2c(=O)c1CCN1CCC(=C(c2ccc(F)cc2)c2ccc(F)cc2)CC1 [Ritanserin],1.7
